Laboratory results from ChEMBL document CHEMBL3392978 (Eur J Med Chem, 2015).

Columns and labels:
HepG2 [1] = experiment: Growth inhibition of human HepG2 cells at 10 uM after 72 hrs by MTT assay; assay type: functional; conditions: HepG2, 72 h, read-out: GI
MDA-MB-453 = experiment: Growth inhibition of human MDA-MB-453 cells at 10 uM after 72 hrs by MTT assay; assay type: functional; conditions: MDA-MB-453, 72 h, read-out: GI
SW480 = experiment: Growth inhibition of human SW480 cells at 10 uM after 72 hrs by MTT assay; assay type: functional; conditions: SW480, 72 h, read-out: GI
A-375 = experiment: Growth inhibition of human A375 cells at 10 uM after 72 hrs by MTT assay; assay type: functional; conditions: A-375, 72 h, read-out: GI
NCI-H522 = experiment: Growth inhibition of human NCI-H522 cells at 10 uM after 72 hrs by MTT assay; assay type: functional; conditions: NCI-H522, 72 h, read-out: GI
MCF7 = experiment: Growth inhibition of human MCF7 cells at 10 uM after 72 hrs by MTT assay; assay type: functional; conditions: MCF7, 72 h, read-out: GI
HepG2 [2] = experiment: Cytotoxicity against human HepG2 cells assessed as reduction in cell viability after 72 hrs by MTT assay; assay type: functional, cell-based; conditions: HepG2, 72 h

Structure (SMILES): Cc1cc(C(=O)Nc2ccc(C)c(C(=O)Nc3ccc(-c4ncc[nH]4)nc3)c2)ccc1Cl
- inhibition of growth at 10 µM (HepG2 [1]): 32%
- inhibition of growth at 10 µM (MDA-MB-453): 27.7%
- inhibition of growth at 10 µM (SW480): 21.4%
- inhibition of growth at 10 µM (A-375): 37.3%
- inhibition of growth at 10 µM (NCI-H522): 12.6%
- inhibition of growth at 10 µM (MCF7): 36.2%

Structure (SMILES): Cc1ccc(NC(=O)c2ccc(C(F)(F)F)cc2)cc1C(=O)Nc1ccc(-c2ncc[nH]2)nc1
- inhibition of growth at 10 µM (HepG2 [1]): 25.7%
- inhibition of growth at 10 µM (MDA-MB-453): 26%
- inhibition of growth at 10 µM (SW480): 28.1%
- inhibition of growth at 10 µM (A-375): 40.4%
- inhibition of growth at 10 µM (NCI-H522): 16.5%
- inhibition of growth at 10 µM (MCF7): 36.4%

Structure (SMILES): Cc1ccc(C(=O)Nc2ccc(C)c(C(=O)Nc3ccc(-c4ncc[nH]4)nc3)c2)cc1
- inhibition of growth at 10 µM (HepG2 [1]): 17.8%
- inhibition of growth at 10 µM (MDA-MB-453): 16.5%
- inhibition of growth at 10 µM (SW480): 26.3%
- inhibition of growth at 10 µM (A-375): 37.6%
- inhibition of growth at 10 µM (NCI-H522): 31.8%
- inhibition of growth at 10 µM (MCF7): 36.5%

Structure (SMILES): Cc1ccc(NC(=O)c2cccc(F)c2)cc1C(=O)Nc1ccc(-c2ncc[nH]2)nc1
- inhibition of growth at 10 µM (HepG2 [1]): 2.1%
- inhibition of growth at 10 µM (MDA-MB-453): 14.9%
- inhibition of growth at 10 µM (SW480): 10.4%
- inhibition of growth at 10 µM (A-375): 27.9%
- inhibition of growth at 10 µM (NCI-H522): 8.5%
- inhibition of growth at 10 µM (MCF7): 29.2%

Structure (SMILES): Cc1ccc(NC(=O)c2ccc(Cl)c(Cl)c2)cc1C(=O)Nc1ccc(-c2ncc[nH]2)nc1
- inhibition of growth at 10 µM (HepG2 [1]): 5.5%
- inhibition of growth at 10 µM (MDA-MB-453): 24.4%
- inhibition of growth at 10 µM (SW480): 13.7%
- inhibition of growth at 10 µM (A-375): 30.6%
- inhibition of growth at 10 µM (NCI-H522): 2%
- inhibition of growth at 10 µM (MCF7): 33%

Structure (SMILES): Cc1ccc(NC(=O)c2ccc(F)cc2)cc1C(=O)Nc1ccc(-c2ncc[nH]2)nc1
- inhibition of growth at 10 µM (HepG2 [1]): 25%
- inhibition of growth at 10 µM (MDA-MB-453): 22%
- inhibition of growth at 10 µM (SW480): 10.1%
- inhibition of growth at 10 µM (A-375): 24.9%
- inhibition of growth at 10 µM (NCI-H522): 6.3%
- inhibition of growth at 10 µM (MCF7): 28.8%

Structure (SMILES): Cc1ccc(NC(=O)c2ccc(Cl)cc2)cc1C(=O)Nc1ccc(-c2ncc[nH]2)nc1
- inhibition of growth at 10 µM (HepG2 [1]): 12.1%
- inhibition of growth at 10 µM (MDA-MB-453): 21.4%
- inhibition of growth at 10 µM (SW480): 17.7%
- inhibition of growth at 10 µM (A-375): 23.9%
- inhibition of growth at 10 µM (NCI-H522): 6.4%
- inhibition of growth at 10 µM (MCF7): 32.4%

Structure (SMILES): Cc1ccc(NC(=O)c2cccc([N+](=O)[O-])c2)cc1C(=O)Nc1ccc(-c2ncc[nH]2)nc1
- inhibition of growth at 10 µM (HepG2 [1]): 11.1%
- inhibition of growth at 10 µM (MDA-MB-453): 22.3%
- inhibition of growth at 10 µM (SW480): 16.7%
- inhibition of growth at 10 µM (A-375): 17.6%
- inhibition of growth at 10 µM (NCI-H522): 8.9%
- inhibition of growth at 10 µM (MCF7): 34.9%

Structure (SMILES): Cc1ccc(NC(=O)c2cccc(Br)c2)cc1C(=O)Nc1ccc(-c2ncc[nH]2)nc1
- inhibition of growth at 10 µM (HepG2 [1]): 6.4%
- inhibition of growth at 10 µM (MDA-MB-453): 20.2%
- inhibition of growth at 10 µM (SW480): 24.4%
- inhibition of growth at 10 µM (A-375): 31.9%
- inhibition of growth at 10 µM (NCI-H522): 10.4%
- inhibition of growth at 10 µM (MCF7): 33.2%

Structure (SMILES): Cc1ccc(NC(=O)c2ccc(Br)cc2)cc1C(=O)Nc1ccc(-c2ncc[nH]2)nc1
- inhibition of growth at 10 µM (HepG2 [1]): 14.8%
- inhibition of growth at 10 µM (MDA-MB-453): 18.9%
- inhibition of growth at 10 µM (SW480): 23.9%
- inhibition of growth at 10 µM (A-375): 30.1%
- inhibition of growth at 10 µM (NCI-H522): 13.5%
- inhibition of growth at 10 µM (MCF7): 31.9%

Structure (SMILES): O=C(Nc1ccc(Cl)c(C(=O)Nc2ccc(-c3ncc[nH]3)nc2)c1)c1cccc(C(F)(F)F)c1
- inhibition of growth at 10 µM (HepG2 [1]): 39.5%
- inhibition of growth at 10 µM (MDA-MB-453): 46.1%
- inhibition of growth at 10 µM (SW480): 26.9%
- inhibition of growth at 10 µM (A-375): 44.5%
- inhibition of growth at 10 µM (NCI-H522): -27.4%
- inhibition of growth at 10 µM (MCF7): 39%

Structure (SMILES): O=C(Nc1ccc(Cl)c(C(=O)Nc2ccc(-c3ncc[nH]3)nc2)c1)c1ccc(C(F)(F)F)cc1
- inhibition of growth at 10 µM (HepG2 [1]): 44%
- inhibition of growth at 10 µM (MDA-MB-453): 48.4%
- inhibition of growth at 10 µM (SW480): 15.1%
- inhibition of growth at 10 µM (A-375): 47.6%
- inhibition of growth at 10 µM (NCI-H522): -22.9%
- inhibition of growth at 10 µM (MCF7): 35.3%

Structure (SMILES): Cc1cccc(C(=O)Nc2ccc(Cl)c(C(=O)Nc3ccc(-c4ncc[nH]4)nc3)c2)c1
- inhibition of growth at 10 µM (HepG2 [1]): 24.8%
- inhibition of growth at 10 µM (MDA-MB-453): 23.6%
- inhibition of growth at 10 µM (SW480): 30.8%
- inhibition of growth at 10 µM (A-375): 40.8%
- inhibition of growth at 10 µM (NCI-H522): 5.3%
- inhibition of growth at 10 µM (MCF7): 34%

Structure (SMILES): Cc1ccc(C(=O)Nc2ccc(Cl)c(C(=O)Nc3ccc(-c4ncc[nH]4)nc3)c2)cc1
- inhibition of growth at 10 µM (HepG2 [1]): -2.7%
- inhibition of growth at 10 µM (MDA-MB-453): 23.2%
- inhibition of growth at 10 µM (SW480): 21.1%
- inhibition of growth at 10 µM (A-375): 30.1%
- inhibition of growth at 10 µM (NCI-H522): 17.2%
- inhibition of growth at 10 µM (MCF7): 22.4%

Structure (SMILES): O=C(Nc1ccc(Cl)c(C(=O)Nc2ccc(-c3ncc[nH]3)nc2)c1)c1cccc(F)c1
- inhibition of growth at 10 µM (HepG2 [1]): -12.9%
- inhibition of growth at 10 µM (MDA-MB-453): 19%
- inhibition of growth at 10 µM (SW480): 16.7%
- inhibition of growth at 10 µM (A-375): 32.3%
- inhibition of growth at 10 µM (NCI-H522): 7.6%
- inhibition of growth at 10 µM (MCF7): 29.7%

Structure (SMILES): O=C(Nc1ccc(Cl)c(C(=O)Nc2ccc(-c3ncc[nH]3)nc2)c1)c1cccc(Cl)c1
- inhibition of growth at 10 µM (HepG2 [1]): 2.9%
- inhibition of growth at 10 µM (MDA-MB-453): 10.7%
- inhibition of growth at 10 µM (SW480): 15.5%
- inhibition of growth at 10 µM (A-375): 32.4%
- inhibition of growth at 10 µM (NCI-H522): -1.8%
- inhibition of growth at 10 µM (MCF7): 29.8%

Structure (SMILES): COc1cccc(C(=O)Nc2ccc(Cl)c(C(=O)Nc3ccc(-c4ncc[nH]4)nc3)c2)c1
- inhibition of growth at 10 µM (HepG2 [1]): 2.6%
- inhibition of growth at 10 µM (MDA-MB-453): 19.4%
- inhibition of growth at 10 µM (SW480): 17.6%
- inhibition of growth at 10 µM (A-375): 34.9%
- inhibition of growth at 10 µM (NCI-H522): -2.9%
- inhibition of growth at 10 µM (MCF7): 29.6%

Structure (SMILES): O=C(Nc1ccc(Cl)c(C(=O)Nc2ccc(-c3ncc[nH]3)nc2)c1)c1ccc(F)cc1
- inhibition of growth at 10 µM (HepG2 [1]): -1.3%
- inhibition of growth at 10 µM (MDA-MB-453): 21.5%
- inhibition of growth at 10 µM (SW480): 14.9%
- inhibition of growth at 10 µM (A-375): 30.1%
- inhibition of growth at 10 µM (NCI-H522): -8.8%
- inhibition of growth at 10 µM (MCF7): 33.4%

Structure (SMILES): O=C(Nc1ccc(Cl)c(C(=O)Nc2ccc(-c3ncc[nH]3)nc2)c1)c1ccc(Cl)cc1
- inhibition of growth at 10 µM (HepG2 [1]): 38.9%
- inhibition of growth at 10 µM (MDA-MB-453): 36.4%
- inhibition of growth at 10 µM (SW480): 13.4%
- inhibition of growth at 10 µM (A-375): 29.6%
- inhibition of growth at 10 µM (NCI-H522): -1.9%
- inhibition of growth at 10 µM (MCF7): 31.4%

Structure (SMILES): O=C(Nc1ccc(Cl)c(C(=O)Nc2ccc(-c3ncc[nH]3)nc2)c1)c1ccc(Cl)c(Br)c1
- inhibition of growth at 10 µM (HepG2 [1]): 35.5%
- inhibition of growth at 10 µM (MDA-MB-453): 15.1%
- inhibition of growth at 10 µM (SW480): 12.4%
- inhibition of growth at 10 µM (A-375): 38.4%
- inhibition of growth at 10 µM (NCI-H522): -15.4%
- inhibition of growth at 10 µM (MCF7): 29.1%

Structure (SMILES): O=C(Nc1cccc(C(F)(F)F)c1)c1ccc(Cl)c(C(=O)Nc2ccc(-c3ncc[nH]3)nc2)c1
- inhibition of growth at 10 µM (HepG2 [1]): 29.9%
- inhibition of growth at 10 µM (MDA-MB-453): 19.7%
- inhibition of growth at 10 µM (SW480): 18.9%
- inhibition of growth at 10 µM (A-375): 44.1%
- inhibition of growth at 10 µM (NCI-H522): -18%
- inhibition of growth at 10 µM (MCF7): 25.9%

Structure (SMILES): O=C(Nc1ccc(Cl)cc1)c1ccc(Cl)c(C(=O)Nc2ccc(-c3ncc[nH]3)nc2)c1
- inhibition of growth at 10 µM (HepG2 [1]): 18.9%
- inhibition of growth at 10 µM (MDA-MB-453): 16.5%
- inhibition of growth at 10 µM (SW480): 12.7%
- inhibition of growth at 10 µM (A-375): 21.9%
- inhibition of growth at 10 µM (NCI-H522): -20%
- inhibition of growth at 10 µM (MCF7): 19.4%

Structure (SMILES): O=C(Nc1cccc(Cl)c1)c1ccc(Cl)c(C(=O)Nc2ccc(-c3ncc[nH]3)nc2)c1
- inhibition of growth at 10 µM (HepG2 [1]): 19.4%
- inhibition of growth at 10 µM (MDA-MB-453): 11.6%
- inhibition of growth at 10 µM (SW480): 5.8%
- inhibition of growth at 10 µM (A-375): 26.1%
- inhibition of growth at 10 µM (NCI-H522): -16.2%
- inhibition of growth at 10 µM (MCF7): 26%

Structure (SMILES): O=C(Nc1ccc(Cl)c(Cl)c1)c1ccc(Cl)c(C(=O)Nc2ccc(-c3ncc[nH]3)nc2)c1
- inhibition of growth at 10 µM (HepG2 [1]): 57%
- inhibition of growth at 10 µM (MDA-MB-453): 36.3%
- inhibition of growth at 10 µM (SW480): 13.4%
- inhibition of growth at 10 µM (A-375): 28.4%
- inhibition of growth at 10 µM (NCI-H522): -28.6%
- inhibition of growth at 10 µM (MCF7): 25%
- IC50 (HepG2 [2]): 3.97 µM
